# Test results as given in PubChem BioAssay (NCI).
#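 A five-concentration, 48-hour dose response in 96-well plates underlies each endpoint, interpolated linearly between surrounding concentrations. Here, GI50 denotes the concentration required for 50% inhibition of growth. TGI: concentration producing complete growth inhibition.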
# Tests used:
# Experiment in all cases: inhibition of tumour cell growth, NCI panel, 48 h
# A498 renal = test system: A498 renal
# OVCAR-3 ovarian = test system: OVCAR-3 ovarian
# SF-295 CNS = test system: SF-295 CNS
# CCRF-CEM leukemia = test system: CCRF-CEM leukemia
# IGROV1 ovarian = test system: IGROV1 ovarian
# SF-268 CNS = test system: SF-268 CNS
# NCI-H522 lung = test system: NCI-H522 lung
# LOX IMVI melanoma = test system: LOX IMVI melanoma
# MDA-MB-231 breast = test system: MDA-MB-231 breast
# HS 578T breast = test system: HS 578T breast
SMILES,GI50 (A498 renal) [µM],TGI (A498 renal) [µM],GI50 (OVCAR-3 ovarian) [µM],TGI (OVCAR-3 ovarian) [µM],GI50 (SF-295 CNS) [µM],TGI (SF-295 CNS) [µM],GI50 (CCRF-CEM leukemia) [µM],TGI (CCRF-CEM leukemia) [µM],GI50 (IGROV1 ovarian) [µM],TGI (IGROV1 ovarian) [µM],GI50 (SF-268 CNS) [µM],TGI (SF-268 CNS) [µM],GI50 (NCI-H522 lung) [µM],TGI (NCI-H522 lung) [µM],GI50 (LOX IMVI melanoma) [µM],TGI (LOX IMVI melanoma) [µM],GI50 (MDA-MB-231 breast) [µM],TGI (MDA-MB-231 breast) [µM],TGI (HS 578T breast) [µM],GI50 (HS 578T breast) [µM]
[Cu+2].[Cu+2].[O-]c1ccccc1C=Nc1ccccc1[O-].[O-]c1ccccc1C=Nc1ccccc1[O-],14.4,28.1,5.56,15.8,8.01,27.6,3.33,21.3,3.33,12.2,11.8,24.2,2.39,6.24,4.12,17.5,–,–,–,–
COc1ccc2c(c1)Oc1nc(N)c(C#N)c(N)c1C2Sc1ccc(SC)cc1 (stereo unspecified),1.77,3.3,1.75,3.19,1.81,3.34,–,–,1.73,3.78,1.7,3.29,1.65,3.08,1.68,3.21,1.85,3.38,–,–
Cc1oc2ccccc2c(=O)c1Cn1nnc2ccccc21,–,> 100,–,79.7,–,> 100,–,> 100,–,–,–,> 100,–,–,–,> 100,–,> 100,> 100,–
COc1ccc(-c2nc(-c3nc4ccc(F)cc4[nH]3)cc3c2[nH]c2ccccc23)cc1,1.92,9.7,2.23,5.01,–,–,2.29,25.6,2.49,9.7,3.24,> 100,2,5.97,2.22,5.31,2.3,8.95,> 100,2.82
Nc1nc2ncn(CCO)c2c(=O)[nH]1,–,–,–,> 100,–,> 100,–,> 100,–,–,–,> 100,–,–,–,> 100,–,–,–,–
COc1cc(OC)cc(N2CCC(c3c(N)nc(N)nc3Cl)CC2)c1,–,–,–,> 100,–,> 100,–,> 100,–,> 100,–,> 100,–,> 100,–,> 100,–,–,–,–
COc1ccc(CC(=O)c2cc(OC)c(OC)cc2C)cc1OC,–,> 100,–,> 100,–,> 100,–,> 100,–,> 100,–,> 100,–,> 100,–,–,–,–,–,–
CC(C)(C)c1nc2c(o1)C(=Nc1ccccc1)c1ccccc1C2=O,–,36.4,–,6.24,–,10.2,–,> 100,–,33.6,–,21,–,10.2,–,4.14,–,–,–,–
CC(=O)[CH-]C(=O)c1ccccc1.CC(=O)[CH-]C(=O)c1ccccc1.[Nd+3].[OH-].[OH3+],> 100,> 100,> 100,> 100,> 100,> 100,> 100,> 100,> 100,> 100,> 100,> 100,> 100,> 100,> 100,> 100,–,–,–,–
CN(C)CCC1(C2=CCCC2)CC/C(=C\c2ccc3c(c2)OCO3)C1=O (stereo unspecified),–,24.7,–,31.6,–,29.5,–,41.4,–,–,–,28.1,–,–,–,–,–,–,–,–
